In patent US9877945B2 (priority 2013, dated 2018):
Where two headings read alike, the source gives them in different places.

Tested on: Clostridium perfringens strain 56
Settings: for Number of birds with macroscopic necrotic enteritis lesions: lesion score 2 or more = positive; for Birds with macroscopic necrotic enteritis lesions, Total (%) (positive chicken in total) / Number of birds with macroscopic necrotic enteritis lesions, total: total of days 21-23
[1] = day 21, product on silica carrier in feed 5 / 2.5 / 2 kg/ton in weeks 1 / 2 / 3 (low conc for monobutyrate)
[2] = day 22, product on silica carrier in feed 5 / 2.5 / 2 kg/ton in weeks 1 / 2 / 3 (low conc for monobutyrate)
[3] = day 23, product on silica carrier in feed 5 / 2.5 / 2 kg/ton in weeks 1 / 2 / 3 (low conc for monobutyrate)
[4] = product on silica carrier in feed 5 / 2.5 / 2 kg/ton in weeks 1 / 2 / 3 (low conc for monobutyrate)
[5] = product on silica carrier in feed at high conc 7.5 / 6 / 5.5 kg/ton in weeks 1 / 2 / 3

CCCC(=O)OCC(COC(=O)CCC)OC(=O)CCC [glyceryl tributyrate]
Result in preventing Clostridium perfringens-induced necrotic enteritis compared with glyceryl monobutyrate at either concentration (FIG. 1) (added to the feed, P value <0.05 taken as significant): significantly better result | Number of birds with macroscopic necrotic enteritis lesions [1]: 3/9 | Number of birds with macroscopic necrotic enteritis lesions [2]: 2/9 | Number of birds with macroscopic necrotic enteritis lesions [3]: 2/11 | Birds with macroscopic necrotic enteritis lesions, Total (%) (positive chicken in total) [4]: 24% | Number of birds with macroscopic necrotic enteritis lesions, total [4]: 7/29

CCCC(=O)OCC(O)CO (centres unmarked) [glyceryl monobutyrate]
Number of birds with macroscopic necrotic enteritis lesions [1]: 5/9 | Number of birds with macroscopic necrotic enteritis lesions (day 21, product on silica carrier in feed at high conc 7.5 / 6 / 5.5 kg/ton in weeks 1 / 2 / 3): 4/9 | Number of birds with macroscopic necrotic enteritis lesions [2]: 3/9 | Number of birds with macroscopic necrotic enteritis lesions (day 22, product on silica carrier in feed at high conc 7.5 / 6 / 5.5 kg/ton in weeks 1 / 2 / 3): 5/9 | Number of birds with macroscopic necrotic enteritis lesions [3]: 2/10 | Number of birds with macroscopic necrotic enteritis lesions (day 23, product on silica carrier in feed at high conc 7.5 / 6 / 5.5 kg/ton in weeks 1 / 2 / 3): 3/8 | chickens died during the trial (pen 3: higher concentration in feed (7.5 / 6 / 5.5 kg/ton)): 2 | Birds with macroscopic necrotic enteritis lesions, Total (%) (positive chicken in total) [4]: 36% | Number of birds with macroscopic necrotic enteritis lesions, total [4]: 10/28 | Birds with macroscopic necrotic enteritis lesions, Total (%) (positive chicken in total) [5]: 46% | Number of birds with macroscopic necrotic enteritis lesions, total [5]: 12/26
